Measured values taken from patent publication US20060286046A1, “Skin care compositions” (priority 2005, published 2006).

How the values were obtained:
Type in all cases: cell-based, human
JEG-3 cells [1] = assay: Viability experiments (Alamar Blue and CFDA-AM) after simulated solar radiation (SSR) exposure; conditions: SSR 16 hours
Method: (§1) JEG-3 cells, a human placental choriocarcinoma cell line of epithelial origin, were grown and maintained at 37° C., 5% CO2 in 75 mm^2 culture flasks until a confluent monolayer was formed. Cells were then removed, washed, re-suspended, and counted on a hemocytometer, allowing for the concentration to be adjusted to 30,000 cells/mL. Aliquots of 0.2 mL of the cell solution were added into each well of a 96 well micro-plate. The cells were incubated at 37° C., 5% CO2 for 48 hours prior to treatment to allow for a confluent monolayer to form. The media was aspirated off and new media with test compounds were added at various concentrations.
(§2) All treatments were made in MEM without FBS. The anti-oxidants were added directly to the medium. The cells were then incubated for 16 hours at 37° C./5% CO2 under simulated solar radiation (SSR) conditions, with a UVB:UVA:visible light ratio of 0.3:5.52:96 mmol m−2 s−1 (total fluence rate: 102 mmol m−2 s−1, which is about 5% of full sunlight).
Two viability experiments were done at the end of the incubation periods (Dark or SSR exposure). Alamar Blue™ is a metabolic (primarily mitochondrial) activity indicator that requires the reducing power of the cell to transform the dye from non-fluorescent to fluorescent. Carboxy-fluorescein diacetate (CFDA-AM) is also a fluorescent dye that requires cellular esterases inside a cell to become fluorescent. The presence of an intact membrane allows the CFDA-AM to concentrate and give a higher reading than may occur outside the cell. Both dyes were combined in phosphate buffered saline with glucose (PBSG) buffer and added to the microplate wells after the media (MEM plus treatment) was removed. […] The plates were incubated for 30 minutes at 37° C./5% CO2 and were then read on a fluorimeter (PerSeptive Biosystems Cytofluor 4000) with excitation and emission, respectively, set at 530 nm and 590 nm for Alamar Blue™ and 485 nm and 530 nm for CFDA-AM. Because of the different excitation and emission wavelengths as well as little cross-reactivity, both dyes can be used simultaneously. The results were calculated as a percentage of the control value.

JEG-3 cells [2] = assay: Reactive oxygen species detection (H2DCFDA) after SSR exposure; conditions: SSR 16 hours; FIG. 4
Method: as §1, §2
To determine the levels of ROS generated in the cell system, another fluorescent probe, H2DCFDA, was used. After the 16-hour incubation period under SSR, the media was removed. The probe was added to PBSG in a ratio of 1 μl/ml for a final concentration of 4 nM according to manufacturer instructions. From this mixture, 200 μl/well was added and the plate read on the Cytofluor 4000 at 485 nm excitation and 530 nm emission for 4 hours with readings taken every hour. Results are stated in relative fluorescence units representing the fluorescent product, dichlorofluorescein (DCF). The results were calculated as a percentage of the dark control.

JEG-3 cells [3] = assay: Metabolic activity (Alamar Blue) after dark exposure; conditions: incubated in the dark for 24 hours; FIG. 1
Method: Alamar Blue™ is a metabolic activity indicator that requires the reducing power of the cell to transform the dye from the non-fluorescent to the fluorescent. Decreased metabolic activity of a cell is generally associated with cell damage due to a variety of stressors.
as §1, with “The media was aspirated off and new media with test compounds were added at various concentrations.” left out
Two viability experiments were done at the end of the incubation periods (Dark or SSR exposure). […] The presence of an intact membrane allows the CFDA-AM to concentrate and give a higher reading than may occur outside the cell. […] The plates were incubated for 30 minutes at 37° C./5% CO2 and were then read on a fluorimeter (PerSeptive Biosystems Cytofluor 4000) with excitation and emission, respectively, set at 530 nm and 590 nm for Alamar Blue™ and 485 nm and 530 nm for CFDA-AM. […] The results were calculated as a percentage of the control value.

SMILES: N[C@@H](CCC(=O)N[C@@H](CS)C(=O)NCC(=O)O)C(=O)O [GSH, glutathione]
- protection of cell viability (JEG-3 cells [1]; 10 mM): complete protection

SMILES: CC(=O)N[C@@H](CS)C(=O)O [NAC, N-acetylcysteine]
- ROS levels (DCF production) (JEG-3 cells [2]): decreased dye levels (DCF production)
- protective effect on ROS compared to other antioxidants (JEG-3 cells [2]): superior to ascorbate but not as great as GSH
- protection of cell viability (JEG-3 cells [1]; 10 mM): complete protection
- metabolic activity compared to control cells (JEG-3 cells [3]): did not differ significantly from control

SMILES: O=C1O[C@H]([C@@H](O)CO)C(O)=C1O [ascorbate, ascorbic acid]
- protection of cell viability (JEG-3 cells [1]; 10 mM): only partial protection

SMILES: NCCC(=O)N[C@@H](Cc1cnc[nH]1)C(=O)O [carnosine, L-carnosine]
- ROS levels (DCF production) (JEG-3 cells [2]): did not decrease ROS levels
- protection of cell viability (JEG-3 cells [1]; 10 mM): only partial protection
- protection of cell viability (JEG-3 cells [1]; all concentrations): only provided for partial protection of cell viability
- metabolic activity compared to control cells (JEG-3 cells [3]): did not differ significantly from control
